Measurements reported in patent US20240123080A1, “CYTOTOXIC COMPOUNDS AND CONJUGATES THEREOF” (Seagen Inc., priority 2022, published 2024).
*1 amine or outer side, *2 acyl side, *3 side chain or, on linkers, in order; H or OH if unused. Where a SMILES comes first, the peptide text is derived from it. [ ]: non-standard residue; d: D form. The star is where a group is joined. Dolaproine = CO[C@@H]([C@@H]1CCCN1)[C@@H](C)C(=O)O; Propanoyl(3-maleimido) = O=C1C=CC(=O)N1CCC(=O)*; Dil = CC[C@H](C)[C@H](NC)[C@@H](CC(=O)O)OC; PABC = O=C(OCc1ccc(N[*:1])cc1)[*:2]; Doe = c1ccc(C[C@H](N*)c2nccs2)cc1; X1 = C[C@@H](N*)[C@@H](O)c1ccccc1; Phe(ol) = N[C@H](CO)Cc1ccccc1; NHPhenethyl = c1ccc(CCN*)cc1; NMeV = CN[C@H](C(=O)O)C(C)C; X2 = CN(C)[C@@H](CO)C(=O)*; NMeS = CN[C@@H](CO)C(=O)O

Tests used:
SKMEL28 = assay: In vitro cytotoxicity of auristatin ADCs and free drugs (CellTiter-Glo, 96 h); assay type: cell-based; conditions: for IC50: Homo sapiens, SK-MEL-28, 96 h, read-out: IC50, SKMEL28
Experimental: (§1) Cancer cells were counted and plated in 40 μL complete growth media in 384-well, white-walled tissue culture treated plates (Corning). Cell plates were incubated at 37° C. and with 5% CO2 overnight to allow the cells to equilibrate. Stock solutions containing ADCs or free drugs were serially diluted in RPMI-1640+20% fetal bovine serum (FBS). 10 μL of each concentration were then added to each cell plate in duplicate. Cells were then incubated at 37° C. and with 5% CO2 for 96 hours, upon which, the cell plates were removed from the incubator and allowed to cool to room temperature for 30 minutes prior to analysis. CellTiter-Glo® luminescent assay reagent (Promega Corporation, Madison, WI) was prepared according to Promega's protocol. 10 μL of CellTiter-Glo® were added to assay plates using a Formulatrix Tempest liquid handler (Formulatrix) and the plates were protected from light for 30 minutes at room temperature. The luminescence of the samples was measured using an EnVision Multimode plate reader (Perkin Elmer, Waltham, MA). Raw data were analyzed in Graphpad Prism (San Diego, CA) using a nonlinear, 4-parameter curve fit model [Y=Bottom+(Top-Bottom)/(1+10^((LogEC50−X)*HillSlope))]. Results are reported as IC50 values, which are defined as the concentration of ADC or free drug required to reduce cell viability to 50%.

CALU1 = assay: as above; assay type: cell-based; conditions: for IC50: Homo sapiens, Calu-1, 96 h, read-out: IC50, CALU1; for IC50, CALU1: ADC, 96 h
Experimental: as §1

SKMEL5 = assay: as above; assay type: cell-based; conditions: for IC50: Homo sapiens, SK-MEL-5, 96 h, read-out: IC50, SKMEL5; for IC50, SKMEL5: ADC, 96 h
Experimental: as §1

A2058 = assay: as above; assay type: cell-based; conditions: for IC50: Homo sapiens, A2058, 96 h, read-out: IC50, A2058; for IC50, A2058: ADC, 96 h
Experimental: as §1

[1] = LogD, miniaturized 1-octanol/pH 7.4 buffer shake flask method, LC/MS/MS; assay type: physicochemical
Experimental: The LogD (distribution coefficient) of the compounds was measured using a miniaturized 1-octanol/pH 7.4 buffer shake flask method followed by LC/MS/MS analysis. Values were determined by measuring the compound partitioned in the organic and buffered layers.

[2] = test system: DEL, Karpas299, and L540cy cell lines; assay: Average cytotoxicity of DEL, Karpas299, and L540cy cell lines; assay type: cell-based; conditions: read-out: Avg IC50 Free drug
Experimental: (§2) The cytotoxicity of free drugs and drug conjugates were measured by a cell proliferation assay employing the protocol described in Promega Corp. Technical Bulletin TB288; and Mendoza et al., 2002, Cancer Res. 62:5485-5488), the methods of which are specifically incorporated by reference herein. Briefly, an aliquot of 40 μl of cell culture containing about 400 cells in medium is deposited in each well of a 384-well, opaque-walled plate. A 10 μL aliquot of free drug or drug conjugate is added to the experimental wells and incubated for 96 h and are then equilibrated to room temperature for approximately 30 minutes whereupon a volume of CellTiter-Glo™ reagent equal to the volume of cell culture medium present in each well is added. The contents are mixed for 2 minutes on an orbital shaker to induce cell lysis and the plate is incubated at room temperature for 10 minutes to stabilize the luminescence signal for recordation.
Tolerability of an ADC comprising the compound of Example 8 of the present application was compared to tolerability of ADCs comprising the known compounds MMAE and MMAF. Without being bound by theory, the improvements in tolerability are believed to be related to reduced toxicities in the bone marrow and in the liver that are a result of the OH moieties on the compound of Example 8.

DEL ALCL = assay: In vitro cytotoxicity, cell proliferation assay (CellTiter-Glo, 96 h); assay type: cell-based; conditions: auristatin free drug
Experimental: as §2

Karpas299 NHL = assay: as above; assay type: cell-based; conditions: Homo sapiens, KARPAS-299, auristatin free drug
Experimental: as §2

L540cy HL = assay: as above; assay type: cell-based; conditions: auristatin free drug
Experimental: as §2

Sprague Dawley rats = assay: In vivo rat safety study of non-binding (h00) ADCs, hematology and clinical chemistry; conditions: ADC of the Drug-Linker
Experimental: In vivo rat safety studies were done in naive female Sprague Dawley rats (Envigo). Studies had 3 animals/group/timepoint and included a vehicle control group (1×PBS pH 7.4). Animals were administered a single dose of 15 or 80 mg/kg of an h00 ADC (DAR=4) via intravenous injection. Blood was drawn at days 5 and day 8. Blood was sampled under isoflurane anesthesia via the jugular vein for periodic hematology analysis on the Sysmex XT-2000iV. At necropsy, blood was collected from the caudal vena cava for hematology and clinical chemistry panels. Clinical chemistry was analyzed on a Beckman Coulter AU680.

WM2664 = assay: In vitro cytotoxicity of auristatin ADCs and free drugs (CellTiter-Glo, 96 h); assay type: cell-based; conditions: ADC, Table 8
Experimental: as §1

SKBR3 = assay: as above; assay type: cell-based; conditions: ADC, Table 8
Experimental: as §1

HCC2218 = assay: as above; assay type: cell-based; conditions: ADC, Table 8
Experimental: as §1

cynomolgus monkeys [3] = assay: In vivo toxicology study of hCR011 ADCs at 5 mg/kg (Example 98); set-up: species or system cynomolgus monkey; conditions: DAR=4
Experimental: In vivo toxicology studies were done in naive cynomolgus monkeys. Studies had 2 animals/group/timepoint of hCR011-MC-VC-MMAE (DAR=4) or hCR011-Example 60 (DAR=4). Animals were administered four weekly doses of 5 mg/kg of ADC via intravenous (slow bolus) injection.

cynomolgus monkeys [4] = assay: In vivo safety study of hCR011 ADCs, hematology and clinical chemistry (Example 97); set-up: species or system cynomolgus monkey; conditions: 3 mg/kg, four weekly i.v. doses, DAR=4
Experimental: In vivo safety studies were done in naive cynomolgus monkeys. Studies had 1 or 2 animals/group/timepoint of hCR011-MC-VC-MMAE (DAR=4) or hCR011-Example 60 (DAR=4). Animals were administered four weekly doses of 3, 5, or 10 mg/kg of ADC via intravenous (slow bolus) injection. Baseline measurements for hematology and clinical chemistry parameters were taken from blood drawn at one or two time points prior to dosing, and post-dose timepoints were collected at day 8, and also on days 15 and 29 (hematology only).

CC[C@H](C)[C@@H]([C@@H](CC(=O)N1CCC[C@H]1[C@H](OC)[C@@H](C)C(=O)N[C@H](CO)Cc1ccccc1)OC)N(C)C(=O)[C@@H](NC(=O)[C@H](CO)N(C)C)C(C)C [Ex. 8 (compound 1.1)] (X2-V[Dil][Dolaproine][Phe(ol)])
IC50 (SKMEL28): 4 nM | IC50 (CALU1): 5 nM | IC50 (SKMEL5): 2 nM | IC50 (A2058): 2 nM

CC[C@H](C)[C@@H]([C@@H](CC(=O)N1CCC[C@H]1[C@H](OC)[C@@H](C)C(=O)N[C@H](CO)Cc1ccccc1)OC)N(C)C(=O)[C@@H](NC(=O)[C@H](CO)N(C)C)C(C)C [Example 8] (X2-V[Dil][Dolaproine][Phe(ol)])
logD [1]: 1.6 | IC50 [2]: 2.9 nM | IC50 (DEL ALCL): 0.7 nM | IC50 (Karpas299 NHL): 1.4 nM | IC50 (L540cy HL): 6.6 nM

CC[C@H](C)[C@@H]([C@@H](CC(=O)N1CCC[C@H]1[C@H](OC)[C@@H](C)C(=O)NCCc1ccccc1)OC)N(C)C(=O)[C@@H](NC(=O)[C@H](CO)N(C)C(=O)OCc1ccc(NC(=O)[C@H](CCC(=O)O)NC(=O)[C@H](C)NC(=O)[C@@H](CC(C)C)NC(=O)CCN2C(=O)C=CC2=O)cc1)C(C)C [Example 78] ({Propanoyl(3-maleimido)}-[dL]AE[PABC][NMeS]V[Dil][Dolaproine]-NHPhenethyl)
Tolerated at 80 mg/kg in rats (Sprague Dawley rats): Yes

CC[C@H](C)[C@@H]([C@@H](CC(=O)N1CCC[C@H]1[C@H](OC)[C@@H](C)C(=O)N[C@@H](Cc1ccccc1)c1nccs1)OC)N(C)C(=O)[C@@H](NC(=O)[C@H](CO)N(C)C(=O)OCc1ccc(NC(=O)[C@H](CCC(=O)O)NC(=O)[C@H](C)NC(=O)[C@@H](CC(C)C)NC(=O)CCN2C(=O)C=CC2=O)cc1)C(C)C [Example 79] ({Propanoyl(3-maleimido)}-[dL]AE[PABC][NMeS]V[Dil][Dolaproine]-Doe)
Tolerated at 80 mg/kg in rats (Sprague Dawley rats): No

CC[C@H](C)[C@@H]([C@@H](CC(=O)N1CCC[C@H]1[C@H](OC)[C@@H](C)C(=O)N[C@@H](Cc1ccccc1)c1nccs1)OC)N(C)C(=O)[C@@H](NC(=O)[C@H](CO)N(C)C(=O)OCc1ccc(NC(=O)[C@H](CCC(=O)O)NC(=O)[C@H](C)NC(=O)[C@@H](CC(C)C)NC(=O)CCN2C(=O)C=CC2=O)cc1)[C@@H](C)CC [Example 80] ({Propanoyl(3-maleimido)}-[dL]AE[PABC][NMeS]I[Dil][Dolaproine]-Doe)
Tolerated at 80 mg/kg in rats (Sprague Dawley rats): Yes

CC[C@H](C)[C@@H]([C@@H](CC(=O)N1CCC[C@H]1[C@H](OC)[C@@H](C)C(=O)N[C@H](C)[C@@H](O)c1ccccc1)OC)N(C)C(=O)[C@@H](NC(=O)[C@@H](NC)C(C)C)C(C)C [MMAE, monomethyl auristatin E, reference compound] (H-[NMeV]V[Dil][Dolaproine]-X1)
IC50 (SKMEL28): 0.4 nM | IC50 (CALU1): 0.6 nM | IC50 (SKMEL5): 0.2 nM | IC50 (A2058): 0.3 nM | logD [1]: 1.9 | IC50 [2]: 0.2 nM | IC50 (DEL ALCL): 0.05 nM | IC50 (Karpas299 NHL): 0.1 nM | IC50 (L540cy HL): 0.1 nM

CC[C@H](C)[C@@H]([C@@H](CC(=O)N1CCC[C@H]1[C@H](OC)[C@@H](C)C(=O)N[C@@H](Cc1ccccc1)C(=O)O)OC)N(C)C(=O)[C@@H](NC(=O)[C@@H](NC)C(C)C)C(C)C [MMAF, monomethyl auristatin F, reference compound] (H-[NMeV]V[Dil][Dolaproine]F-OH)
logD [1]: 0.03 | IC50 [2]: 44 nM | IC50 (DEL ALCL): 44 nM | IC50 (Karpas299 NHL): 41 nM | IC50 (L540cy HL): 47 nM

hCR011-MC-VC-MMAE: "conjugate hCR011-MC-VC-MMAE" "(DAR=4)" [reference compound]
IC50, SKMEL28 (SKMEL28; ADC, Table 9, 96 h): 14.02 µg/mL | IC50, WM2664 (WM2664): 4.468 µg/mL | IC50, CALU1 (CALU1; Table 8): >30K | IC50, CALU1 (CALU1; Table 9): 14251 ng/mL | IC50, SKBR3 (SKBR3): 2.69 µg/mL | IC50, HCC2218 (HCC2218): >30K | IC50, SKMEL5 (SKMEL5; Table 8): 0.916 µg/mL | IC50, SKMEL5 (SKMEL5; Table 9): 0.668 µg/mL | IC50, A2058 (A2058; Table 8): 24.3 µg/mL | IC50, A2058 (A2058; Table 9): 11.118 µg/mL | neutrophil counts post-dose on Day 8, FIG. 21 (cynomolgus monkeys [3]): a decrease relative to baseline | neutrophil counts post-administration, FIG. 17 (cynomolgus monkeys [4]): a decrease relative to baseline on days 8, 15, and 29
